# “And” between values parts separate entries of the source, which are not always exact repeats. Identical values can stand only once.
# Experiment: Phase I study: plasma pharmacokinetics of orally administered Compound 1
# Assay type: in vivo, human
# Conditions: for AUC(0-inf) / AUC(0-t) / Cmax / half-life / Tmax: human, plasma, oral
# Source text: The study was designed as a multicenter, open-label Phase 1 study of orally administered Compound 1 in participants with R/R AML or participants with R/R intermediate- to high-risk MDS. […] Additional cohorts for participants with R/R intermediate- to high-risk MDS following hypomethylating agents or other AML cohorts may be added at a later time.
# Similar dosing may be used in the dose expansion part of the study. […] Additional intensive PK testing is collected for any participants undergoing intra-patient dose escalation.
# At the conclusion of the 900 mg QD cohort, subjects were enrolled in cohorts for BID dosing, starting with the 300 mg BID dosing.
# Subjects were treated with Compound 1 QD as described in Example 2.
# Subjects were treated with Compound 1 QD or BID dosing as described in Example 2 and blood samples were taken from subjects and analyzed as described in Example 3. Tables 16 and 17 show pharmacokinetic analyses for QD dosing for 100 mg, 175 mg, 275 mg, 350 mg, 400 mg and 900 mg cohorts and BID dosing for 300 mg and 350 mg cohorts. Abbreviations in Table 16 and Table 17: AR=Day 4 AUC0-24/Day 1 AUC0-24, NR=not reported; NA=not available. […] FIG. 9 and FIG. 10 show AUC for day 1 and day 4 of dosing with doses between 350-900 mg QD compared with 350 mg BID.
# [1] = 300 mg, 300 mg BID, Day 1, 1 subject
# [2] = 300 mg, 300 mg BID, Day 4, 1 subject
# [3] = 350 mg, 350 mg BID, Day 1, Mean
# [4] = 350 mg, 350 mg BID, Day 4, Mean
smiles,measurement,setting,value
"Cc1cc2c(C(N)=O)cccc2n1-c1nc2c(c(NCc3ccccc3)n1)CCCN2 [Compound 1, 1-(4-(benzylamino)-5,6,7,8-tetrahydropyrido[2,3-d]pyrimidin-2-yl)-2-methyl-1H-indole-4-carboxamide]",exposure level increases between the doses,25 mg to 450 mg QD,generally proportional and linear
same,Cmax/Dose,"100 mg QD, Day 1, Mean",0.00372 µM/mg
same,exposure of BID dosing compared with QD dosing,"350 mg BID vs 600, 750 and 900 mg QD, Day 1",higher level of exposure
same,Cmax/Dose,"450 mg QD, Day 1, Mean",0.00481 µM/mg
same,AUC0-inf/Dose,"450 mg QD, Day 4, Mean",0.0853 µM·h/mg
same,AR,"Cohort 1 (25 mg QD), Day 4",0.914
same,plasma exposure compared with CB-5083,Compound 1 25 mg QD vs CB-5083 40 mg QD,significantly higher plasma exposure
same,accumulation,between days 1 and 4,No accumulation
same,plasma exposure compared with CB-5083,human subjects,significantly higher plasma exposure than CB-5083
same,AUC(0-inf),"100 mg, 100 mg QD, Day 1, Mean",1780 ng·h/mL and 4.31 µM·h
same,AUC(0-t),"100 mg, 100 mg QD, Day 1, Mean",1420 ng·h/mL and 3.43 µM·h
same,Cmax,"100 mg, 100 mg QD, Day 1, Mean",154 ng/mL and 372 nM
same,half-life,"100 mg, 100 mg QD, Day 1, Mean",6.87 h
same,AUC(0-inf),"100 mg, 100 mg QD, Day 4, Mean",3020 ng·h/mL and 7.32 µM·h
same,AUC(0-t),"100 mg, 100 mg QD, Day 4, Mean",2750 ng·h/mL and 6.66 µM·h
same,Cmax,"100 mg, 100 mg QD, Day 4, Mean",356 ng/mL and 861 nM
same,Tmax,"100 mg, 100 mg QD, Day 4, Mean",2.67 h
same,half-life,"100 mg, 100 mg QD, Day 4, Mean",7.84 h
same,AUC(0-inf),"175 mg, 175 mg QD, Day 1, Mean",5260 ng·h/mL and 12.7 µM·h
same,AUC(0-t),"175 mg, 175 mg QD, Day 1, Mean",4380 ng·h/mL and 10.6 µM·h
same,Cmax,"175 mg, 175 mg QD, Day 1, Mean",636 ng/mL
same,Tmax,"175 mg, 175 mg QD, Day 1, Mean",3.33 h
same,half-life,"175 mg, 175 mg QD, Day 1, Mean",11.4 h
same,AUC(0-inf),"175 mg, 175 mg QD, Day 4, Mean",2950 ng·h/mL and 7.13 µM·h
same,AUC(0-t),"175 mg, 175 mg QD, Day 4, Mean",8760 ng·h/mL and 21.2 µM·h
same,Cmax,"175 mg, 175 mg QD, Day 4, Mean",490 ng/mL and 1.19 µM
same,Tmax,"175 mg, 175 mg QD, Day 4, Mean",13.5 h
same,half-life,"175 mg, 175 mg QD, Day 4, Mean",6.01 h
same,AUC(0-inf),"275 mg, 275 mg QD, Day 1, Mean",4660 ng·h/mL and 11.3 µM·h
same,AUC(0-t),"275 mg, 275 mg QD, Day 1, Mean",4140 ng·h/mL and 10 µM·h
same,Cmax,"275 mg, 275 mg QD, Day 1, Mean",679 ng/mL and 1.65 µM
same,Tmax,"275 mg, 275 mg QD, Day 1, Mean",2.57 h
same,half-life,"275 mg, 275 mg QD, Day 1, Mean",5.08 h
same,AUC(0-inf),"275 mg, 275 mg QD, Day 4, Mean",9660 ng·h/mL and 23.4 µM·h
same,AUC(0-t),"275 mg, 275 mg QD, Day 4, Mean",9230 ng·h/mL and 22.4 µM·h
same,Cmax,"275 mg, 275 mg QD, Day 4, Mean",827 ng/mL and 2 µM
same,Tmax,"275 mg, 275 mg QD, Day 4, Mean",3.6 h
same,half-life,"275 mg, 275 mg QD, Day 4, Mean",8.9 h
same,AUC(0-t),[1],12200 ng·h/mL and 29.6 µM·h
same,Cmax,[1],965 ng/mL and 2.34 µM
same,Tmax,[1],12 h
same,AUC(0-inf),[2],27700 ng·h/mL and 67 µM·h
same,AUC(0-t),[2],27400 ng·h/mL and 66.4 µM·h
same,Cmax,[2],1920 ng/mL and 4.65 µM
same,Tmax,[2],3 h
same,AUC(0-inf),[3],29600 ng·h/mL and 71.8 µM·h
same,AUC(0-t),[3],14600 ng·h/mL and 35.3 µM·h
same,Cmax,[3],1340 ng/mL and 3.25 µM
same,Tmax,[3],7.63 h
same,AUC(0-inf),[4],31800 ng·h/mL and 77 µM·h
same,AUC(0-t),[4],23400 ng·h/mL and 56.7 µM·h
same,Cmax,[4],2020 ng/mL and 4.89 µM
same,Tmax,[4],3.25 h
same,AUC(0-inf),"350 mg, 350 mg QD, Day 1, Mean",5330 ng·h/mL and 12.9 µM·h
same,AUC(0-t),"350 mg, 350 mg QD, Day 1, Mean",5200 ng·h/mL and 12.6 µM·h
same,Cmax,"350 mg, 350 mg QD, Day 1, Mean",746 ng/mL and 1.81 µM
same,Tmax,"350 mg, 350 mg QD, Day 1, Mean",3.2 h
same,half-life,"350 mg, 350 mg QD, Day 1, Mean",4.48 h
same,AUC(0-inf),"350 mg, 350 mg QD, Day 4, Mean",8570 ng·h/mL and 20.8 µM·h
same,AUC(0-t),"350 mg, 350 mg QD, Day 4, Mean",8440 ng·h/mL and 20.4 µM·h
same,Cmax,"350 mg, 350 mg QD, Day 4, Mean",834 ng/mL and 2.02 µM
same,Tmax,"350 mg, 350 mg QD, Day 4, Mean",4 h
same,half-life,"350 mg, 350 mg QD, Day 4, Mean",7.55 h
same,AUC(0-inf),"450 mg, 450 mg QD, Day 1, Mean",8860 ng·h/mL and 21.5 µM·h
same,AUC(0-t),"450 mg, 450 mg QD, Day 1, Mean",8340 ng·h/mL and 20.2 µM·h
same,Cmax,"450 mg, 450 mg QD, Day 1, Mean",895 ng/mL and 2.17 µM
same,Tmax,"450 mg, 450 mg QD, Day 1, Mean",3 h
same,half-life,"450 mg, 450 mg QD, Day 1, Mean",6.05 h
same,AUC(0-inf),"450 mg, 450 mg QD, Day 4, Mean",15900 ng·h/mL and 38.4 µM·h
same,AUC(0-t),"450 mg, 450 mg QD, Day 4, Mean",14500 ng·h/mL
same,Cmax,"450 mg, 450 mg QD, Day 4, Mean",1350 ng/mL and 3.28 µM
same,Tmax,"450 mg, 450 mg QD, Day 4, Mean",4 h
same,half-life,"450 mg, 450 mg QD, Day 4, Mean",9.62 h
same,AUC(0-inf),"600 mg, 600 mg QD, Day 1, Mean",6500 ng·h/mL and 15.7 µM·h
same,AUC(0-t),"600 mg, 600 mg QD, Day 1, Mean",5710 ng·h/mL and 13.8 µM·h
same,Cmax,"600 mg, 600 mg QD, Day 1, Mean",799 ng/mL and 1.93 µM
same,Tmax,"600 mg, 600 mg QD, Day 1, Mean",3.6 h
same,half-life,"600 mg, 600 mg QD, Day 1, Mean",5.94 h
same,AUC(0-inf),"600 mg, 600 mg QD, Day 4, Mean",18200 ng·h/mL and 44 µM·h
same,AUC(0-t),"600 mg, 600 mg QD, Day 4, Mean",17200 ng·h/mL and 41.7 µM·h
same,Cmax,"600 mg, 600 mg QD, Day 4, Mean",1960 ng/mL and 4.75 µM
same,Tmax,"600 mg, 600 mg QD, Day 4, Mean",3.4 h
same,half-life,"600 mg, 600 mg QD, Day 4, Mean",9.77 h
same,AUC(0-inf),"750 mg, 750 mg QD, Day 1, Mean",6160 ng·h/mL and 14.9 µM·h
same,AUC(0-t),"750 mg, 750 mg QD, Day 1, Mean",5960 ng·h/mL and 14.4 µM·h
same,Cmax,"750 mg, 750 mg QD, Day 1, Mean",796 ng/mL and 1.93 µM
same,Tmax,"750 mg, 750 mg QD, Day 1, Mean",3.33 h
same,half-life,"750 mg, 750 mg QD, Day 1, Mean",4.49 h
same,AUC(0-inf),"750 mg, 750 mg QD, Day 4, Mean",13200 ng·h/mL and 32.1 µM·h
same,AUC(0-t),"750 mg, 750 mg QD, Day 4, Mean",12900 ng·h/mL and 31.3 µM·h
same,Cmax,"750 mg, 750 mg QD, Day 4, Mean",2260 ng/mL and 5.48 µM
same,Tmax,"750 mg, 750 mg QD, Day 4, Mean",2.5 h
same,half-life,"750 mg, 750 mg QD, Day 4, Mean",6.67 h
same,AUC(0-inf),"900 mg, 900 mg QD, Day 1, Mean",14000 ng·h/mL and 33.9 µM·h
same,AUC(0-t),"900 mg, 900 mg QD, Day 1, Mean",12300 ng·h/mL and 29.8 µM·h
same,Cmax,"900 mg, 900 mg QD, Day 1, Mean",1550 ng/mL and 3.76 µM
same,Tmax,"900 mg, 900 mg QD, Day 1, Mean",2.5 h
same,half-life,"900 mg, 900 mg QD, Day 1, Mean",5.71 h
same,AUC(0-inf),"900 mg, 900 mg QD, Day 4, Mean",27000 ng·h/mL and 65.3 µM·h
same,AUC(0-t),"900 mg, 900 mg QD, Day 4, Mean",26700 ng·h/mL and 64.6 µM·h
same,Cmax,"900 mg, 900 mg QD, Day 4, Mean",3220 ng/mL and 7.8 µM
same,Tmax,"900 mg, 900 mg QD, Day 4, Mean",3.33 h
same,half-life,"900 mg, 900 mg QD, Day 4, Mean",6.47 h
same,Cmax,"175 mg QD, Day 1, Mean",1540 nM
same,AUC(0-t),"450 mg QD, Day 4, Mean",35.2 µM·h
same,exposures compared with CB-5083,"vs CB-5083 at greater than 200 mg, FIG. 4",greater than dosing CB-5083 at greater than 200 mg

# Source: US20250049800A1, “VCP/p97 INHIBITOR FOR THE TREATMENT OF CANCER” (CASI Pharmaceuticals, Inc., priority 2021, published 2025)
